Data set [1] has as its system gastric lesions (96% ethanol). Briefly: Ethanol gastric lesions, NO-system. As to conditions: for effect on ethanol gastric lesions, agent given alone: NaBPC157 10 μg or 10 ng/kg i.p. with 96% ethanol i.g., 1 hour, L-NAME 5 mg/kg i.v., L-arginine 200 mg/kg i.v. 5 minutes before. The class given is in vivo, rats. Here is the method: Some of the effects of NaBPC157 (10 μg or 10 ng/kg) were challenged in rats, such as the salutary activity against gastric lesions and NaBPC157's activity with respect to blood pressure maintenance. The lesions were obtained by using a 1 hour ethanol treatment (96%, i.g. (intragastrically)). NaBPC157 was simultaneously applied (i.p. (intraperitoneally)). In the blood pressure maintenance experiment, NaBPC157 was given intravenously (i.v.).
Also studied was the combined application of N^G -nitro-L-arginine methylester (L-NAME) (5 mg/kg i.v.), a competitive inhibitor of endothelium nitric oxide (NO)-generation and the NO-precursor L-arginine (200 mg/kg i.v.) (D-arginine was ineffective). In the gastric lesion assays, the NO-agents were given 5 minutes before the ethanol injury and the treatment with NaBPC157.

Data set [2] has as its system Pulmonary Hypertension Syndrome (PHS) and tissue lesions. Briefly: Pulmonary Hypertension Syndrome, acute and chronic toxicity. It is filed as in vivo, chicks. As to conditions: for tissue or organ damage (pathohistology): acute and chronic toxicity. Here is the method:
The present experiments describe the effects of nitric oxide (NO) agonists and antagonists and the influence of NaBPC157 on the development of Pulmonary Hypertension Syndrome (PHS) and tissue lesions in chicks. Experiments investigating acute toxicity were conducted. These included single dose applications of saline (1 ml i.p.), NaBPC157 (10 μg/kg b.w.), L-NAME (NO antagonist/doses 50, 100, 150 mg/kg b.w.) and L-arginine (NO agonist/100 mg/kg b.w./with their combination (L-NAME+NaBPC157, L-NAME+L-arginine)). Pathohistological examinations of the spleen, heart, liver and lungs and hematological analyses were conducted. Furthermore, chronic toxicity experiments were conducted. The animals were treated daily during five weeks with L-NAME (10 mg/kg b.w.), L-arginine (100 mg/kg b.w.), NaBPC157 (10 μg/kg b.w.) and their combinations (L-NAME+NaBPC157, L-NAME+L-arginine) intraperitoneally. Seven animals from each group including controls (saline 1 ml i.p.) were sacrificed every week.

For the next data set, the system named is restraint stress lesions. Briefly: 48 hour-restraint stress ulcer model. It is filed as in vivo, rats. As for the experimental part: (§1) The effects of NaBPC157 (10 μg or 10 ng/kg i.p., i.g.) were investigated in rats in comparison with several reference standards in several experimental ulcer models (48 hour-restraint stress, subcutaneous cysteamine, intragastrical 96% ethanol ulcer tests, NSAIAs-lesions, DNFB (Dinitrofluorhenzene), reflux esophagitis following esophagojejunal termino-lateral anastomosis) (pre-/co-/post-treatment).

In the next data set the test system is DNFB-intestinal lesions. Briefly: DNFB-intestinal lesions. Also on record: species or system rats. As to conditions: rat, in vivo. As for the experimental part:
as §1

The subject of data set [3] is mobility in chronically stressed rats. Briefly: Chronic unpredictable stress, open field-immobility test. The class given is in vivo, rat. As to conditions: NaBPC157 10 μg, 10 ng; imipramine 30 mg; once daily. The text has this:
Various antidepressants have antiulcer activity and the models currently used in ulcer and depression research share a considerable degree of similarity. Therefore, the possibility that depression disorders could be effectively influenced by a primary antiulcer agent with cyto-/organo-protective activity such as NaBPC157 was investigated in two rat depression assays: the forced swimming test (a Porsolt's procedure) and the chronic unpredictable stress method (after five days of unpredictable stress protocol, once-daily drug application during the stress procedure and an open field-immobility test assessment at fourth and sixth days of medication).

The test system of data set [4] is portal blood pressure, organ lesions. Briefly: Chronic alcohol intoxication. Conditions: alcohol for three months; NaBPC157 10 μg, 10 ng/kg; propranolol, ranitidine 10 mg/kg b.w. It is filed as in vivo, Male Albino Wistar rats. As for the experimental part:
The effects of NaBPC157 on chronic alcohol intoxication were examined. Male Albino Wistar rats were used for these experiments. The rats were drinking either commercial whiskey or ethanol (10-20% water solution) for three months. The application of NaBPC157 (10 μg, 10 ng/kg b.w.), propranolol (10 mg/kg b.w.), and ranitidine (10 mg/kg b.w.) (control rats received an equivolume of saline 5.0 ml/kg), either intragastrically or intraperitoneally, was conducted either prophylactically (10 days before alcohol initiation) or as a co-treatment together with alcohol or therapeutically (starting at the end of a two month period, i.e. during the last month of the experiment).

For another data set, the system named is reflux esophagitis. Briefly: Reflux esophagitis after esophagojejunal anastomosis. As to conditions: rat, in vivo. Set-up: species or system rats. Here is the method: as §1
For data set [5], the system named is amphetamine stereotyped behavior. Briefly: Amphetamine stereotypes and excitability. As to conditions: no amphetamine. It is filed as in vivo, rats. Here is the method:
The effects of NaBPC157 on the dopamine agonist amphetamine (10 mg/kg i.p.) stereotypes and on excitability were studied. NaBPC157 was applied as a prophylactic co-treatment or therapeutic salutary regimen (10 μg or 10 ng/kg i.p.). The stereotyped behaviour and excitability was induced in rats.

The nature of a further data set: Toxicity observations. As to conditions: high dosages (e.g. g/kg b.w., i.p.). The class given is in vivo.
In data set [6] the test system is diazepam tolerance and withdrawal. The data set is described as follows: Diazepam tolerance and physical dependence, isoniazid latencies. As to conditions: mouse, in vivo. Set-up: species or system mice. Here is the method:
In tolerance assays forty-two hours after the conditioning regimen, shorter preconvulsive latencies than that in healthy mice following an isoniazid treatment (800 mg/kg i.p.) were observed if diazepam (5.0 mg/kg i.p.) was given again to mice previously conditioned with diazepam alone. […] In this group at six hour intervals, unlike in diazepam conditioned mice, isoniazid preconvulsive latencies were still longer than in corresponding controls.

A further data set relates to ethanol ulcer. Briefly: Intragastrical 96% ethanol ulcer test. It is filed as in vivo, rats. Conditions: reference peptides; related to treatment conditions.
A further data set concerns cysteamine ulcer. The data set is described as follows: Subcutaneous cysteamine ulcer test. It is filed as in vivo, rats. As to conditions: reference peptides.

Where no end group is shown, it is not given here.

For the molecule `N=C(N)NCCC[C@@H](N)C(=O)O` [D-arginine], the “effect on ethanol gastric lesions, agent given alone” value (“effect on ethanol gastric lesions” for short) in [1] is “ineffective”.
With `COC(=O)[C@@H](N)CCCNC(=N)N[N+](=O)[O-]` [L-NAME, N^G -nitro-L-arginine methylester], the “effect on ethanol gastric lesions” value in [1] is “had no effect”. The “induction of PHS” value in data set [2] (L-NAME) was “caused PHS”. The “tissue or organ damage (pathohistology)” value in data set [2] is “caused severe tissue damage”. Also, in [2] (in vivo), the hematological analyses entry was “significant hemoglobin and leukocyte number decreases”.
As for `N=C(N)NCCC[C@H](N)C(=O)O` [L-arginine], the “antiulcer activity after L-NAME” value in data set [1] (L-NAME 5 mg/kg i.v. 5 minutes before ethanol) is recorded as “completely abolished”. For the same molecule, the “effect on ethanol gastric lesions” value in data set [1] is “antiulcer effect”. Moreover, the “tissue or organ damage (pathohistology)” value in data set [2] was “provoked predominantly congestion, edema and hemorrhages in all organs”. Also, in data set [2] (in vivo), the “inhibition of the effects of L-NAME” value was “successfully inhibited”. The “prevention of L-NAME-caused PHS” value in data set [2] (simultaneous application, L-arginine 100 mg/kg, NaBPC157 10 μg/kg b.w.) is listed as “prevented”.
`NC12CC3CC(CC(C3)C1)C2` [amatadine]: the “effect in restraint stress” value with restraint stress lesions is listed as “ineffective”.
On to `CC(C)C[C@H]1C(=O)N2CCC[C@H]2[C@]2(O)O[C@](NC(=O)[C@@H]3C=C4c5cccc6[nH]c(Br)c(c56)C[C@H]4N(C)C3)(C(C)C)C(=O)N12` [bromocriptine], for which the “effect on DNFB-intestinal lesions” value in the data set with DNFB-intestinal lesions is listed as “only partially effective”. Besides, in the data set on restraint stress lesions, the “effect in restraint stress” value is “ineffective”.
`CN/C(=N/CCSCc1nc[nH]c1C)NC#N` [cimetidine]: the “effect in restraint stress” value with restraint stress lesions is listed as “ineffective”.
The same measure, in the same setting: as for `NC(N)=Nc1nc(CSCCC(N)=NS(N)(=O)=O)cs1` [famotidine], the entry is “ineffective”.
Regarding `CN(C)CCCN1c2ccccc2CCc2ccccc21` [imipramine], the “mobility in chronic unpredictable stress” value in data set [3] is “failure of imipramine activity”.
With `CC(C)NCC(O)COc1cccc2ccccc12` (stereo not drawn) [propranolol], the portal blood pressure entry in [4] was “markedly prevented and/or decreased”.
For `CNC(=C[N+](=O)[O-])NCCSCc1ccc(CN(C)C)o1` [ranitidine], in the data set with reflux esophagitis, the “effect on reflux esophagitis” value is “only partially effective”. For the same molecule, in data set [4], the portal blood pressure entry was “even more increased portal pressure values”.
For the molecule `C[C@H](N)C(=O)NCC(=O)N[C@H]1CSSC[C@@H](C(=O)O)NC(=O)[C@H](CO)NC(=O)[C@H]([C@@H](C)O)NC(=O)[C@H](Cc2ccccc2)NC(=O)[C@H]([C@@H](C)O)NC(=O)[C@H](CCCCN)NC(=O)[C@H](Cc2c[nH]c3ccccc23)NC(=O)[C@H](Cc2ccccc2)NC(=O)[C@H](Cc2ccccc2)NC(=O)[C@H](CC(N)=O)NC(=O)[C@H](CCCCN)NC1=O` [somatostatin], the “effect in restraint stress” value in the data set with restraint stress lesions is “ineffective”.
For the molecule “GEPPPGKPADDAGLV [NaBPC157, Monosodium Salt of BPC157]”, the “gross behavior, agent alone” value in data set [5] is given as “does not affect gross behavior or induce stereotypes”. In addition, in “Toxicity observations”, the “influence on basal parameters” value is given as “No influence on different basal parameters” and the “toxicity at high dosages” value was “no toxicity”. The “tissue or organ damage (pathohistology)” value in [2] is recorded as “did not cause any tissue or organ damage”. Moreover, the “tolerance effect of the agent itself” value in data set [6] is “does not produce any tolerance effect”.
NPY: the “effect, ethanol” value with ethanol ulcer is listed as “partial positive effect”. The “protection, cysteamine” value with cysteamine ulcer is reported as “dose-dependent protection”.
Take secretin: in the data set with ethanol ulcer, the “effect, ethanol” value was “partial positive effect”. Also, in the data set with cysteamine ulcer, the “protection, cysteamine” value is reported as “dose-dependent protection”.
For the molecule sucralfate, the “effect on reflux esophagitis” value in the data set on reflux esophagitis was “only partially effective”.
